In ChEMBL document CHEMBL1146959, “Design and structure-activity relationship of heterocyclic analogs of 4-amino-3-benzimidazol-2-ylhydroquinolin-2-ones as inhibitors of receptor tyrosine kinases” (Bioorg Med Chem Lett, 2006):

Legend:
HMEC = assay: Activity against HMVEC; format: functional, cell-based; settings: Homo sapiens
[1] = molecular target: Fibroblast growth factor receptor 1 (Homo sapiens, UniProt P11362); assay: Inhibitory activity against FGFR1
[2] = molecular target: Vascular endothelial growth factor receptor 2 (Mus musculus, UniProt P35918); assay: Inhibitory activity against VEGFR2
[3] = Half life in mice at 20 mg/kg, po; format: ADME, organism-based; design: dose 20 mg/kg, route oral; settings: mouse, in vivo
[4] = Oral bioavailability in mice; format: ADME, organism-based; settings: mouse, in vivo
[5] = Half life in mice at 5 mg/kg, iv; format: ADME, organism-based; design: dose 5 mg/kg, route intravenous; settings: mouse, in vivo
[6] = molecular target: Platelet-derived growth factor receptor beta (Mus musculus, UniProt P05622); assay: Inhibitory activity against PDGFRbeta
[7] = Clearance in mice; format: ADME, organism-based; settings: mouse, in vivo
[8] = molecular target: Vascular endothelial growth factor receptor 1 (Homo sapiens, UniProt P17948)
Chain of Vascular endothelial growth factor receptor 1 (P17948 whole entry): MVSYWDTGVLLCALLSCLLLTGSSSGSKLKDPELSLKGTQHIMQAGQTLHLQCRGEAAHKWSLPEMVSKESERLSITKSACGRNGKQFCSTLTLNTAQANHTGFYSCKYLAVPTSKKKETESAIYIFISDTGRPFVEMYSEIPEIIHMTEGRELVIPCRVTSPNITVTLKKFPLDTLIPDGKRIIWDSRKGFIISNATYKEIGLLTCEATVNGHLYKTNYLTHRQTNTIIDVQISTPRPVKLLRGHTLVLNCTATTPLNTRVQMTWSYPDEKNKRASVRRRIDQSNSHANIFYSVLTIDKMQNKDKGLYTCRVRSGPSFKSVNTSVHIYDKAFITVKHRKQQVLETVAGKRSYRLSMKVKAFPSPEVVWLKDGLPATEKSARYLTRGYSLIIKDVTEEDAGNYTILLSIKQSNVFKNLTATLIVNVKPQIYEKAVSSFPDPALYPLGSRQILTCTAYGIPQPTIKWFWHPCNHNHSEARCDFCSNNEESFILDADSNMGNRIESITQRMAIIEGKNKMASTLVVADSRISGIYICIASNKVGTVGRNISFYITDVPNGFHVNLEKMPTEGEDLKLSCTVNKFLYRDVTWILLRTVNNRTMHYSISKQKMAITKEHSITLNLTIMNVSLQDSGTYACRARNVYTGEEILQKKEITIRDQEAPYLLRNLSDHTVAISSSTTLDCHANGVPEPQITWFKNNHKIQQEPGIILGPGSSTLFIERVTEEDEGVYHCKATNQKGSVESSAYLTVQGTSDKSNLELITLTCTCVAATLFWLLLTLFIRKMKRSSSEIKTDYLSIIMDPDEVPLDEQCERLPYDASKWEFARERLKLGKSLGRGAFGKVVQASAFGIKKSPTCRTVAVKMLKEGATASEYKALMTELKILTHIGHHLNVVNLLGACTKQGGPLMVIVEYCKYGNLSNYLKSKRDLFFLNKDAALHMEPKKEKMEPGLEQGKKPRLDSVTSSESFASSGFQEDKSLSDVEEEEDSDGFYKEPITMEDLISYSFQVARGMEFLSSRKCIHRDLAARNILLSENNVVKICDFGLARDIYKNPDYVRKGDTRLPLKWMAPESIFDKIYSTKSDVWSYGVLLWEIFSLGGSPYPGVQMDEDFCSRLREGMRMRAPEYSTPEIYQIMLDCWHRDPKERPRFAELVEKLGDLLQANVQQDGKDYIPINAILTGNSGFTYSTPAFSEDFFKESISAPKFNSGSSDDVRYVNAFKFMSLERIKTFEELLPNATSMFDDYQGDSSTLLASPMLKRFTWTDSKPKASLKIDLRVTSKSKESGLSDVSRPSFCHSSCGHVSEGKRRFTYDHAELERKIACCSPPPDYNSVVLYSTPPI
Description: Inhibitory activity against VEGFR1

Chain of Vascular endothelial growth factor receptor 2 (P35918 whole entry): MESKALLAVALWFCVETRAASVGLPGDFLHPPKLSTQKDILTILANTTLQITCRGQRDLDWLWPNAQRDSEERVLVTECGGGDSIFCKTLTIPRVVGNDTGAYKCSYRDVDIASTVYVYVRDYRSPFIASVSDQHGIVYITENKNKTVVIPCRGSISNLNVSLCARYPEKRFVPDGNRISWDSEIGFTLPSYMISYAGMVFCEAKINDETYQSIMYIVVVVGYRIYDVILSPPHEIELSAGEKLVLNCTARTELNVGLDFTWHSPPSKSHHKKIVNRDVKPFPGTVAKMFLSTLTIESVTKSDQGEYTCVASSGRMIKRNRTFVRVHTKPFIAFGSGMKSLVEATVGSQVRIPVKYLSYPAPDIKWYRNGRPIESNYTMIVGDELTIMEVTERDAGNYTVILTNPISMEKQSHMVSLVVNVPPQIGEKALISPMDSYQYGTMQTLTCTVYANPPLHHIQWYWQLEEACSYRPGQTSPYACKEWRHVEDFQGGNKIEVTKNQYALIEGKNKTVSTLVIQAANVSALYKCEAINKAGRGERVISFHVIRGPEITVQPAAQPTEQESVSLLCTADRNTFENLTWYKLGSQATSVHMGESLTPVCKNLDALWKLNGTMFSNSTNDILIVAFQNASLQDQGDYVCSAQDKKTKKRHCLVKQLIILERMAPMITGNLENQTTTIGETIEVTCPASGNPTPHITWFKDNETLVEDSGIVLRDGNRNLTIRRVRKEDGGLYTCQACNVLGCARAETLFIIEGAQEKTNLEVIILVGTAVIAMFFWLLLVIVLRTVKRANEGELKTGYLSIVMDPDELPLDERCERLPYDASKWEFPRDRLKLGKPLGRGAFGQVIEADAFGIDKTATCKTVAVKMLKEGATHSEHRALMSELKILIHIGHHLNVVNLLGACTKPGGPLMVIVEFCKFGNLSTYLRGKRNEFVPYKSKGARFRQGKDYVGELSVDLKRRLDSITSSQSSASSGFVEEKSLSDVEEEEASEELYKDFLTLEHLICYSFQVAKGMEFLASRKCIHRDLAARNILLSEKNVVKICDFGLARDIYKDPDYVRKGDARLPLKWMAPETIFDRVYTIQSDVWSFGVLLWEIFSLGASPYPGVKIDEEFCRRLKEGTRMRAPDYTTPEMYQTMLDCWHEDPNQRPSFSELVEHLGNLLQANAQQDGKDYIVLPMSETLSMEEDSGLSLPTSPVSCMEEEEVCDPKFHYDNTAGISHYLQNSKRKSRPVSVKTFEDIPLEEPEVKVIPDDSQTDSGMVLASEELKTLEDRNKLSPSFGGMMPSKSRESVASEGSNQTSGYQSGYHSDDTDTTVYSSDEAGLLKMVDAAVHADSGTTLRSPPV
Chain of Platelet-derived growth factor receptor beta (P05622 whole entry): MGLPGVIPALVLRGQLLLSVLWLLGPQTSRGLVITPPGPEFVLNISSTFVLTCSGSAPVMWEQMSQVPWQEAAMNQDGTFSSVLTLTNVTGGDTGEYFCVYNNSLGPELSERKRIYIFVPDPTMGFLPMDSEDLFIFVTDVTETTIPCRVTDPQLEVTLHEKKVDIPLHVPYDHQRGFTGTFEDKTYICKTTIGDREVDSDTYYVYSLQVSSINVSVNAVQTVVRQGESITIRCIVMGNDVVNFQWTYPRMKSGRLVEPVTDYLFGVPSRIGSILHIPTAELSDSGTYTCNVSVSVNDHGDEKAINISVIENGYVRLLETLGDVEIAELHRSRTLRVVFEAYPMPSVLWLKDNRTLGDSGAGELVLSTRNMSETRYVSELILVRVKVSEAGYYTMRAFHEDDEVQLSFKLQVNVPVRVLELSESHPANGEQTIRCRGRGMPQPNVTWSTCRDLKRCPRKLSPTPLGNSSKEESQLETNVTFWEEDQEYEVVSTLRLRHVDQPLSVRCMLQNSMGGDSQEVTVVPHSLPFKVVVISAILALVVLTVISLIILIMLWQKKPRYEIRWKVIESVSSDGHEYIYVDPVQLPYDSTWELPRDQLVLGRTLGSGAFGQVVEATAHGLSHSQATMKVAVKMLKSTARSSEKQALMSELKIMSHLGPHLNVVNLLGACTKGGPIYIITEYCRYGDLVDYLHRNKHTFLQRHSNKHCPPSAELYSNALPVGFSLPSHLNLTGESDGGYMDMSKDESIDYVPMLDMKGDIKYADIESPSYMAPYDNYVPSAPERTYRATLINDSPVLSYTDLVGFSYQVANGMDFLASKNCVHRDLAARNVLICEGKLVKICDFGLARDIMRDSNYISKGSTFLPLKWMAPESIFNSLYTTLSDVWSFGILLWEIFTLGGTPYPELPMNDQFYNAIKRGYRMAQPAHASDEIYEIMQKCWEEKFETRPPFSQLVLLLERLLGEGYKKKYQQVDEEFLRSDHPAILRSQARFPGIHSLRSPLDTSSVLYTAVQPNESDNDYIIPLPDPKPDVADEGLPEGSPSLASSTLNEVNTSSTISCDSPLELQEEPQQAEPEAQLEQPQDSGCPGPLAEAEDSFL
Chain of Fibroblast growth factor receptor 1 (P11362 whole entry): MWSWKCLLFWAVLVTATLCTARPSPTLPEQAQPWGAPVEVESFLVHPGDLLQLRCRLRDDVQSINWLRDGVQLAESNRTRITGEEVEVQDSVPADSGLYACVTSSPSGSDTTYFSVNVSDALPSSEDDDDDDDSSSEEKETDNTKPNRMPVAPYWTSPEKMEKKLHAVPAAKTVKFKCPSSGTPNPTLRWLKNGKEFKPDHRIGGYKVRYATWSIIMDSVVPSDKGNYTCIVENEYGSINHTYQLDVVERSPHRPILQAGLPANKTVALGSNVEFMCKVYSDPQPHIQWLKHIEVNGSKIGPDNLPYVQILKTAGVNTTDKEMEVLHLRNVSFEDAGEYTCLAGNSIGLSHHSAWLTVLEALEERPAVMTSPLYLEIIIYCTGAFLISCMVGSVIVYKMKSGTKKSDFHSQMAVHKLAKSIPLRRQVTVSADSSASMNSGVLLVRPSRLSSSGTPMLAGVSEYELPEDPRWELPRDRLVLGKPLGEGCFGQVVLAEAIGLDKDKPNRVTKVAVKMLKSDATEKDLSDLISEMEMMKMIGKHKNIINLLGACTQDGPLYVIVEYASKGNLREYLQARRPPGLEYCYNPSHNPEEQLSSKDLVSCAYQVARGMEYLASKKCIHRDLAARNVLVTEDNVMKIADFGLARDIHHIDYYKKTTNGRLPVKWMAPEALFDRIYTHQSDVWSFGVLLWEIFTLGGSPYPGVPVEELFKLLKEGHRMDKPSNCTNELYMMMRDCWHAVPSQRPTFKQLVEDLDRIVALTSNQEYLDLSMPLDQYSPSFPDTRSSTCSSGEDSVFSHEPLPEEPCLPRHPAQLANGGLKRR

Row | Structure (SMILES) | EC50 (HMEC) [nM] | IC50 [1] [nM] | IC50 [2] [nM] | half-life [3] [h] | bioavailability [4] [%] | half-life [5] [h] | IC50 [6] [nM] | clearance [7] [mL/min/kg] | IC50 [8] [nM]
1 | Nc1c(-c2nc3cc(N4CCOCC4)ccc3[nH]2)c(=O)[nH]c2ccccc12 | 40 | 21 | 4 | 3.6 | 100 | 1.18 | 38 | 13 | –
2 | CN1CCN(c2ccc3[nH]c(-c4c(N)c5ccccc5[nH]c4=O)nc3c2)CC1 | 20 | 8 | 13 | – | – | – | 27 | – | –
3 | CN1CCN(c2ccc3nc(-c4c(N)c5ccccc5[nH]c4=O)[nH]c3n2)CC1 | 51 | 10 | 24 | – | – | – | 30 | – | –
4 | Nc1c(-c2nc3cccnc3[nH]2)c(=O)[nH]c2ccccc12 | 88 | 51 | 16 | – | – | – | 25 | – | –
5 | Nc1c(-c2nc3cccnc3[nH]2)c(=O)[nH]c2cnccc12 | 77 | 30 | 12 | – | – | – | 49 | – | –
6 | Nc1c(-c2nc3cc(N4CCOCC4)ccc3[nH]2)c(O)nc2cnccc12 | 84 | 10 | 2 | 1.3 | 87 | 0.433 | 64 | 24 | –
7 | Nc1c2cnnc-2[nH]c(O)c1-c1nc2ccccc2[nH]1 | 3820 | 3170 | 507 | – | – | – | 326 | – | –
8 | CN1CCN(c2ccc3[nH]c(-c4c(O)nc5cccnc5c4N)nc3c2)CC1 | 89 | 43 | 33 | – | – | – | 55 | – | –
9 | Nc1c(-c2nc3ccccc3[nH]2)c(O)nc2sccc12 | 850 | 348 | 109 | – | – | – | 691 | – | –
10 | CN1CCN(c2ccc3[nH]c(-c4c(O)nc5cnccc5c4N)nc3c2)CC1 | 16 | 4 | 1 | – | – | – | 43 | – | –
11 | Oc1nc2cnccc2c(O)c1-c1nc2ccccc2[nH]1 | 2200 | 576 | 168 | – | – | – | 1590 | – | –
12 | Oc1nc2ncccc2c(O)c1-c1nc2ccccc2[nH]1 | > 10000 | 5000 | 3000 | – | – | – | 6530 | – | –
13 | O=c1[nH]c2ccccc2c(O)c1-c1nc2ccccc2[nH]1 | 428 | 215 | 114 | – | – | – | 395 | – | 162
14 | Nc1c(-c2nc3ccc(N4CCOCC4)nc3[nH]2)c(=O)[nH]c2ccccc12 | 34 | 47 | 8 | 0.95 | 84 | 1.08 | 48 | 61 | –
15 | Nc1c(-c2nc3cc(N4CCOCC4)ccc3[nH]2)c(O)nc2ccncc12 | 768 | 100 | 57 | – | – | – | 18 | – | –
16 | Cn1ncc2c(N)c(-c3nc4ccccc4[nH]3)c(O)nc21 | 321 | 3000 | 3000 | – | – | – | 575 | – | –
17 | Nc1c2ncnc-2[nH]c(O)c1-c1nc2ccccc2[nH]1 | 3680 | 2660 | 552 | – | – | – | 154 | – | –
18 | Nc1c(-c2nc3ccccc3[nH]2)c(=O)[nH]c2ccccc12 | – | 44 | 25 | – | – | – | 102 | – | 28
19 | Nc1c(-c2nc3ccccc3[nH]2)c(O)nc2cnccc12 | 53 | 10 | 3 | – | – | – | 57 | – | –
